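Exposure lasted 48 hours, with cells grown in 96-well plates and compounds tested at five concentrations. GI50 is the concentration that inhibits growth by half.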 Calls of active or inactive are those of the source. No stated cut-off is given here; in the data, active = GI50 up to about 1.1 µM and inactive = higher.
Experiments:
Assay in all cases: NCI anticancer screen, dose series, 48 h
NCI/ADR-RES = test system: NCI/ADR-RES
OVCAR-3 = test system: OVCAR-3
SN12C = test system: SN12C
MOLT-4 = test system: MOLT-4
UACC-62 = test system: UACC-62
SK-OV-3 = test system: SK-OV-3
K562 = test system: K562
OVCAR-8 = test system: OVCAR-8
786-0 = test system: 786-0
MDA-MB-231 = test system: MDA-MB-231
UO-31 = test system: UO-31
TK-10 = test system: TK-10
DU-145 = test system: DU-145
OVCAR-5 = test system: OVCAR-5
COLO 205 = test system: COLO 205
A549 = test system: A549
NCI-H460 = test system: NCI-H460
BT-549 = test system: BT-549
MCF7 = test system: MCF7
SK-MEL-28 = test system: SK-MEL-28
NCI-H226 = test system: NCI-H226
T47D = test system: T47D
M14 = test system: M14
CAKI-1 = test system: CAKI-1
SW-620 = test system: SW-620
CCRF-CEM = test system: CCRF-CEM
SF-295 = test system: SF-295
Malme-3M = test system: Malme-3M
SF-539 = test system: SF-539
HOP-92 = test system: HOP-92
RXF 393 = test system: RXF 393
NCI-H522 = test system: NCI-H522
SK-MEL-2 = test system: SK-MEL-2
SR = test system: SR
HCC 2998 = test system: HCC 2998
U-251 = test system: U-251
NCI-H23 = test system: NCI-H23
PC-3 = test system: PC-3
HOP-62 = test system: HOP-62
IGROV-1 = test system: IGROV-1
MDA-N = test system: MDA-N
ACHN = test system: ACHN
OVCAR-4 = test system: OVCAR-4
HT-29 = test system: HT-29
UACC-257 = test system: UACC-257
A498 = test system: A498
HCT-116 = test system: HCT-116
SK-MEL-5 = test system: SK-MEL-5
SF-268 = test system: SF-268
HCT-15 = test system: HCT-15
KM12 = test system: KM12
MDA-MB-435 = test system: MDA-MB-435
RPMI-8226 = test system: RPMI-8226

## FC(F)(Sc1ccccn1)c1nc2ccccc2o1
NCI/ADR-RES
  GI50: 85.3 µM (inactive)
OVCAR-3
  GI50: 61.4 µM (inactive)
SN12C
  GI50: > 100 µM (inactive)
MOLT-4
  GI50: > 100 µM (inactive)
UACC-62
  GI50: > 100 µM (inactive)
SK-OV-3
  GI50: > 100 µM (inactive)
K562
  GI50: 60.5 µM (inactive)
OVCAR-8
  GI50: > 100 µM (inactive)
786-0
  GI50: > 100 µM (inactive)
MDA-MB-231
  GI50: > 100 µM (inactive)
UO-31
  GI50: 69.7 µM (inactive)
TK-10
  GI50: > 100 µM (inactive)
DU-145
  GI50: > 100 µM (inactive)
OVCAR-5
  GI50: > 100 µM (inactive)
COLO 205
  GI50: > 100 µM (inactive)
A549
  GI50: > 100 µM (inactive)
NCI-H460
  GI50: > 100 µM (inactive)
BT-549
  GI50: 64.1 µM (inactive)
MCF7
  GI50: 55.2 µM (inactive)
SK-MEL-28
  GI50: > 100 µM (inactive)
NCI-H226
  GI50: > 100 µM (inactive)
T47D
  GI50: > 100 µM (inactive)
M14
  GI50: > 100 µM (inactive)
CAKI-1
  GI50: > 100 µM (inactive)
SW-620
  GI50: > 100 µM (inactive)
CCRF-CEM
  GI50: 65.2 µM (inactive)
SF-295
  GI50: > 100 µM (inactive)
Malme-3M
  GI50: > 100 µM (inactive)
SF-539
  GI50: > 100 µM (inactive)
HOP-92
  GI50: 76.6 µM (inactive)
RXF 393
  GI50: > 100 µM (inactive)
NCI-H522
  GI50: > 100 µM (inactive)
SK-MEL-2
  GI50: > 100 µM (inactive)
SR
  GI50: > 100 µM (inactive)
HCC 2998
  GI50: > 100 µM (inactive)
U-251
  GI50: 38.6 µM (inactive)
NCI-H23
  GI50: > 100 µM (inactive)
PC-3
  GI50: > 100 µM (inactive)
HOP-62
  GI50: > 100 µM (inactive)
IGROV-1
  GI50: > 100 µM (inactive)
MDA-N
  GI50: > 100 µM (inactive)
ACHN
  GI50: > 100 µM (inactive)
OVCAR-4
  GI50: > 100 µM (inactive)
HT-29
  GI50: > 100 µM (inactive)
UACC-257
  GI50: > 100 µM (inactive)
A498
  GI50: 38.7 µM (inactive)
HCT-116
  GI50: 62.2 µM (inactive)
SK-MEL-5
  GI50: > 100 µM (inactive)
SF-268
  GI50: > 100 µM (inactive)
HCT-15
  GI50: 55.7 µM
KM12
  GI50: > 100 µM (inactive)
MDA-MB-435
  GI50: > 100 µM (inactive)
RPMI-8226
  GI50: > 100 µM (inactive)

Reference: ChEMBL document CHEMBL1201862, “PubChem BioAssay data set” (2004)
